Our source for the melting point values is a melting point compilation (Tetko et al.; mined from patent text by program, amines drawn as free bases though some values may be those of a salt).

Non-standard residues stand in square brackets, D forms with d. Residues, ends and D or L forms follow the SMILES beside them. *: point of attachment. 1Nal = N[C@@H](Cc1cccc2ccccc12)C(=O)O; Cbz = O=C(OCc1ccccc1)*

As usually defined, the melting point is the temperature, or range, at which the solid turns liquid.

Turning to `CCN1c2ncccc2C(=O)N(C)c2ccc(-c3c[nH]c(C(=O)O)c3)nc21`, the melting point was in the range of 256 to 257 °C. Next, `CC(C)(CC(O)(C(=O)O)C(F)(F)F)c1ccc(C(N)=O)cc1` (centres undefined): 244 to 245 °C; `COc1ccc(C(C)=Nc2ccc(C3=NNC(=O)CC3)cc2)c(O)c1`: 269 °C. `COC(=O)[C@H](Cc1ccccc1)NC(=O)[C@H](CC(C)C)NC(=O)OCc1ccccc1` (Cbz-Leu-Phe-OMe) returned a melting point of 91 to 93 °C. In the case of `CON=C(c1ccon1)c1ccccc1COc1cc(C)ccc1C`, the melting point fell in the range of 104 to 108 °C. Turning to `O=C1CC2CC(n3c(=O)[nH]c4ccccc43)CC2C1` (centres undefined), the melting point fell in the range of 246 to 248 °C.

As for `CC(C)S(=O)(=O)n1c(N)nc2ccc(C(=CBr)c3ccccc3)cc21`, the melting point lay within 180 to 182 °C. For `CC(C)(C)c1ccc(CCCO)cc1NC(=O)CC1c2ccccc2Oc2ccccc21`, the melting point was in the range of 185 to 186 °C. `CCC1(CC)CN(c2ncc(C(=O)N(C)c3cccc(C(F)(F)F)c3)c(N)n2)C(=O)N1` came in with a melting point of 185 to 187 °C. For the compound `CCOC(=O)c1cnc2c(c(C)nn2-c2ccccc2)c1N(Cc1cccnc1)S(=O)(=O)c1ccc(OC)cc1`, the melting point lay in the range of 148 to 150 °C. As to `CC(C)CC(=O)OC1COC(OC(=O)CC(C)C)CO1` (centres undefined), the melting point is 104 to 105 °C. With `COc1ccc(C(=O)NC(=O)Nc2ccc3c(c2)NC(=O)/C3=C/c2ccc(Cl)cc2)cc1` the figure was 278 to 283 °C; with `C#CCOc1cc(O)ccc1-c1nc2cnccc2[nH]1`, 242 °C.

The compound `O=C(Nc1cccc2c(=O)cc(C(=O)O)oc12)c1ccc2oc(COCc3ccccc3)cc2c1` displayed a melting point of 215 to 218 °C. Compound `COCc1nc2c(NC(=O)C(C)(C)C)cccn2c1C` had a melting point of 104 °C. Turning to `OCCCn1cc(-c2cc3nccnc3[nH]2)c2ccccc21`, the melting point lay within 220 to 221 °C. For `CC(C)c1cc(C(=O)CO[C@@H]2C[C@H](C)CC[C@H]2C(C)C)cc(C(C)C)c1O`, the melting point fell in the range of 83 to 84 °C.

Compound `O=c1occc2ccc(Oc3ccc(Cl)cc3)cc12` yielded a melting point of 76.5 to 77 °C.

With `CCOC(=O)c1cc2cc(C(F)(F)F)ccc2[nH]1`, the melting point was in the range of 134 to 137 °C. The compound `COC(=O)c1ccccc1Nc1cc(C(C)(C)C)c(O)c(C(C)(C)C)c1` yielded a melting point of 155 to 158 °C.

In the case of `CC(=O)NCC1CN(c2ccc(-c3cccc(CN(CC(N)=O)CC(N)=O)c3)c(F)c2)C(=O)O1` (centres undefined), the melting point came out at 213 °C. For the compound `Nc1nc(Oc2ccccc2)c2nc[nH]c2n1`, the melting point was 228 °C. In the case of `CCn1c2ccccc2c2cc(NC(=O)c3c(C)cccc3C)ccc21`, the melting point was 192 to 193 °C. `Cc1cccc2c1CCNC2=O` displayed a melting point of 141 to 143 °C. Turning to `COc1ccc(Cc2nc(C)c[nH]2)cc1`, the melting point fell in the range of 108 to 109 °C.

Turning to `O=C(Nc1nc(C(F)(F)F)co1)C1c2ccccc2Oc2cc(F)ccc21` (racemic), the melting point was 221 °C. Next, `O=C(Nc1ccc(F)c([N+](=O)[O-])c1)C(F)(F)F`: 70 to 75 °C; `C=C(c1ccccc1)c1ccc(NC(=S)NC(=O)OC)c(NC(=S)NC(=O)OC)c1`: 182 to 184 °C. In the case of `CCCCCCCCCCCCC(=O)Nc1ccn(C2OC(CO)C(O)C2O)c(=O)n1` (centres undefined), the melting point fell in the range of 143 to 146 °C.

Compound `COc1ccc2c(c1)CCc1nn(-c3ccccn3)c(O)c1-2` gave a melting point of 139 to 140 °C. Next, `Cc1cc2oc(S(N)(=O)=O)cc2cn1`: 233 to 234 °C; `COc1ccc2c(c1)Sc1c(cc(OC)c(OC(C)=O)c1Br)N2`: 201 to 203 °C; `COC1(OC)C(NC(=O)c2ccccc2O)=CC(=O)C2OC21` (centres undefined): 147 to 149 °C. Take `CCCCOc1ncc(C(C)=O)cc1-c1nc2c(CC)n(C3CN(C(=O)OC(C)(C)C)C3)nc2c(=O)[nH]1`: the melting point fell in the range of 176 to 178 °C. `Cc1ccc([N+](=O)[O-])c2[nH]cc(CO)c(=O)c12` showed a melting point of 251 to 255 °C.

`CCCc1nc(C=NNC(=O)OCC)c(C)[nH]1` came in with a melting point of 184 to 188 °C. For `COc1ccc2cc(-c3ccc(OCC(O)CNC(C)(C)C)cc3)n(C)c(=O)c2c1` (centres undefined), the melting point is 130 to 131 °C. Regarding `CN(C)CCSC(=O)c1c[nH]c(=S)n1C1CCc2c(F)cc(F)cc2C1` (centres undefined), the melting point fell in the range of 204 to 206 °C. With `Cc1ccc(C(=O)Nc2ccc(C(=O)CCC(=O)O)cc2)cc1` the figure was 257 to 258 °C; with `O=C(O)C[C@@]1(C[N+](=O)[O-])C[C@H]2CCC[C@H]21`, 64 to 66 °C.

The compound `N#Cc1cccc2c1CC(=O)c1cc(F)ccc1S2` had a melting point of 174 to 175 °C. As for `O=C(Cc1ccc(OCc2ccccc2)cc1)NC1(C(=O)O)Cc2ccc(-c3ccc(Cl)cc3)cc2C1` (centres undefined), the melting point was 234 °C. Regarding `CC(=O)NC(C(=O)NCc1ccccc1)c1ncc[nH]1` (centres undefined), the melting point is 228 to 230 °C. Consider `CCCCCCCCn1c2cc(I)ccc2c2ccc(I)cc21`, for which the melting point was in the range of 82 to 84 °C. Turning to `COc1cc2c(O)c(C(=O)O)cnc2cc1F`, the melting point came to 275 °C.

In turn, `N#CCOc1ccc2cc(-c3cnc(Cc4ccccc4)o3)ccc2c1` yielded a melting point of 184 to 187 °C.

Consider `CC1CN(C(=O)c2ccc(Cl)cc2Cl)c2ccc(Cl)cc2C1=O` (centres undefined), for which the melting point was in the range of 157 to 159 °C. Compound `CCOC(=O)c1ccc(NC(=O)c2ccc3c(c2)OCCO3)cc1` displayed a melting point of 134 to 136 °C. With `OCCCn1c(C2CCCCC2)nc2ccc(Cl)cc21` the figure was 120 °C; with `N#Cc1cc(O)ccc1[N+](=O)[O-]`, 200 to 202 °C; with `COc1ccc2c(c1OC)CN(Cc1ccccc1)CCc1cc3c(cc1CC2)OCO3`, 75 to 78 °C. The compound `Cc1cc2cccc([C@H](O)CO)c2nc1-c1ccccc1` registered a melting point of 117 °C. As for `CCN1CCN=C1c1ccccc1C(=O)c1ccc(Cl)cc1`, the melting point was 132 to 134 °C.

Compound `CCCn1c(=O)c2[nH]c(/C=C/c3cc(OC)c(OC)cc3OC)nc2n(CCC)c1=O` showed a melting point of 254 to 256 °C.

For `CCN(C(=O)NC)c1nnc(C(C)(C)C)s1`, the melting point stood at 112 °C. For `CCc1ccc(C(=O)c2c(N)sc3c2CCN(C(=O)OCc2ccccc2)C3)cc1`, the melting point is 121 to 123 °C. In turn, `Nc1ncc2cc(-c3ccccc3)c(N)nc2n1` displayed a melting point of 317 to 318 °C. `CS(=O)(=O)OCCN1c2ccccc2Oc2ccccc21` displayed a melting point of 81 to 83 °C.

Compound `NC(=NO)c1ncn2c1[C@@H]1CCCN1C(=O)c1c(Br)cccc1-2` showed a melting point of 235 to 237 °C. For the compound `COc1ccc2[nH]c(C)c(SC)c2c1`, the melting point was 55 to 56.5 °C. Compound `COC(=O)c1cccc2c1ccn2C` showed a melting point of 194 to 195 °C. Next, `CCn1ncc2c1ncc1c(SC)nc3ncnn3c12`: 198 to 200 °C; `CCCNc1ccc([N+](=O)[O-])cc1C(=O)c1ccccc1`: 150 °C.

Compound `CN(C)c1ccc2nc(-c3c[nH]c4ccccc34)[nH]c(=O)c2c1` had a melting point greater than 300 °C. Next, `O=[N+]([O-])c1cc(Br)cc2[nH]c(CCl)nc12`: 148 to 150 °C; `Nc1nc(NC2CCCCC2)nc2c1ncn2C1CCCCC1`: 109 to 117 °C. `O=C(c1cccs1)c1cnn2c(-c3cccc(-c4ccc(CO)cc4)c3)ccnc12` came in with a melting point of 106 to 110 °C. `CC(C)C[C@@H](C=O)NC(=O)[C@H](Cc1c[nH]cn1)NC(=O)[C@H](Cc1cccc2ccccc12)NC(=O)OCc1ccccc1` (Cbz-[1Nal]-His-Leu-aldehyde) had a melting point of 106 to 108 °C. On to `CCOC(=O)c1cc2cc(C)cc(NS(=O)(=O)c3cccs3)c2[nH]1`, for which the melting point was in the range of 168 to 169 °C. Compound `COC(=O)C1=C(C)NC(C)=C(C(=O)OC)C1c1ccccc1-c1ccsc1` yielded a melting point of 164 to 166 °C. Next, `CCC(O)(C(N)=O)c1cc(C(F)(F)F)cc(C(F)(F)F)c1` (centres undefined): 128 to 129 °C. Compound `CNC(=O)Nc1cccc(OC(=O)N(CCC#N)c2ccccc2)c1` showed a melting point of 147 °C. With `S=C=NCC1CC(c2ccc(Br)cc2)=NO1` (centres undefined) the figure was 123 to 125 °C.

Compound `CC(=O)OC1C(C)OC(Oc2nc[nH]c2C(N)=O)C(OC(C)=O)C1OC(C)=O` (centres undefined) came in with a melting point of 184 to 186 °C.

`Cc1cccc(COc2cccc(OCc3ccc4cc(F)cc(F)c4n3)c2)c1OCC(=O)O` displayed a melting point of 137 to 141 °C. `CCCc1nc(S(C)(=O)=O)c(C(=O)O)n1Cc1ccc(-c2ccccc2S(=O)(=O)NC(=O)NCC)cc1` returned a melting point of 131 °C.

The compound `CC1(CBr)SC2C(NC(=O)Cc3ccccc3)C(=O)N2C1C(=O)OCC(Cl)(Cl)Cl` (centres undefined) gave a melting point of 90 to 93 °C.

The compound `Cc1cc(Sc2cc(C)c(O)c(C)c2)cc(C)c1O` returned a melting point of 142 °C. For `O=C(c1ccccc1F)c1cc(Cl)ccc1CCCN1C(=O)c2ccccc2C1=O`, the melting point fell in the range of 98 to 99 °C.

With `Cc1nc(-c2ccc3c(c2)c(-c2cc4cccnc4[nH]2)cn3C)no1`, the melting point lay in the range of 290 to 294 °C. `O=C(C=Cc1ccccc1[N+](=O)[O-])CC(=O)NC1CC1` gave a melting point of 133 to 134 °C.

In the case of `O=C(N=P(c1ccccc1)(c1ccccc1)c1ccccc1)OCC1CC1`, the melting point lay in the range of 107 to 113 °C. Regarding `CN1CCN(CCO)C1=Nc1ccccc1N1CCOCC1`, the melting point was 129 to 131 °C.

`CN(C)Cc1ccc(CSCCNc2ncc([N+](=O)[O-])c(=O)[nH]2)o1` returned a melting point of 201 to 204 °C. `COc1cccc(C2CCCN2CCN2C(=O)c3ccccc3C2=O)c1` (centres undefined) showed a melting point of 110 to 111 °C.

In turn, `O=C1C(c2ccccc2)=CC(=O)c2c(O)c(-c3ccccc3)cc(O)c21` yielded a melting point of 170 to 173 °C. As to `N#CCC(=O)Nc1ccc(-c2ccc(C(=O)O)c(=O)[nH]2)cc1`, the melting point was greater than 280 °C. With `O=C(Nc1cccnc1)N1CCN(c2cc(-c3ccc(F)cc3)ncn2)CC1` the figure was 180 to 182 °C; with `CCCc1c(OCCCOc2ccc(C(=O)OCC)cc2F)ccc(C(C)=O)c1O`, 87 to 88 °C.
